Reference: US10781211B2, “Spirocycle compounds and methods of making and using same” (Lundbeck La Jolla Research Center, Inc., priority 2016, dated 2020)

How the values were obtained:
Type in all cases: in vivo
Settings in all cases: 5 mg/kg oral gavage
ABHD6 = ABHD6 (Mus musculus (Mouse), UniProt Q8R2Y0); test: Mouse brain proteomes from inhibitor treated mice (oral gavage, sacrifice 4 h after administration, ABPP analysis), ABHD6
Method in brief: (§1)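 Oral dosing of C57Bl/6J wild-type mice at 5 mg/kg, brain collection 4 h afterwards, then ABPP of brain proteomes to give % target inhibition.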

FAAH = FAAH (Mus musculus (Mouse), UniProt O08914); test: Mouse brain proteomes from inhibitor treated mice (oral gavage, sacrifice 4 h after administration, ABPP analysis), FAAH
Method in brief: as §1

MAGL = MAGL (Mus musculus (Mouse), UniProt O35678); test: Mouse brain proteomes from inhibitor treated mice (oral gavage, sacrifice 4 h after administration, ABPP analysis)
Method: Preparation of Mouse Brain Proteomes from Inhibitor Treated Mice.
Inhibitors were administered to wild-type C57Bl/6J by oral gavage in a vehicle, e.g. PEG400/Ethanol/PBS (7/2/1). Each animal was sacrificed 4 h following administration and brain proteomes were prepared and analyzed according to previously established methods (See Niphakis, M. J., et al. (2011) ACS Chem. Neurosci. and Long, J. Z., et al. Nat. Chem. Biol. 5:37-44). Data from this assay is shown in Table 2 (% inhibition at 5 mg/kg).

Chain of MAGL (O35678 whole entry): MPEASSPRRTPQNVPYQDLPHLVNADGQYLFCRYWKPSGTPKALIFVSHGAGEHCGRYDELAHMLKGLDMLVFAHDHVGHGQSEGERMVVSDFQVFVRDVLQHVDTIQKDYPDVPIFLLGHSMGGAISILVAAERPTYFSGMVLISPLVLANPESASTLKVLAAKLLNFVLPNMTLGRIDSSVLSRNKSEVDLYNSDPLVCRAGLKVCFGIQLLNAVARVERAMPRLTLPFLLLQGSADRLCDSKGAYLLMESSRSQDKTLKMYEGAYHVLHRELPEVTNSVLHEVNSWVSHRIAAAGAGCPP
Chain of FAAH (O08914 whole entry): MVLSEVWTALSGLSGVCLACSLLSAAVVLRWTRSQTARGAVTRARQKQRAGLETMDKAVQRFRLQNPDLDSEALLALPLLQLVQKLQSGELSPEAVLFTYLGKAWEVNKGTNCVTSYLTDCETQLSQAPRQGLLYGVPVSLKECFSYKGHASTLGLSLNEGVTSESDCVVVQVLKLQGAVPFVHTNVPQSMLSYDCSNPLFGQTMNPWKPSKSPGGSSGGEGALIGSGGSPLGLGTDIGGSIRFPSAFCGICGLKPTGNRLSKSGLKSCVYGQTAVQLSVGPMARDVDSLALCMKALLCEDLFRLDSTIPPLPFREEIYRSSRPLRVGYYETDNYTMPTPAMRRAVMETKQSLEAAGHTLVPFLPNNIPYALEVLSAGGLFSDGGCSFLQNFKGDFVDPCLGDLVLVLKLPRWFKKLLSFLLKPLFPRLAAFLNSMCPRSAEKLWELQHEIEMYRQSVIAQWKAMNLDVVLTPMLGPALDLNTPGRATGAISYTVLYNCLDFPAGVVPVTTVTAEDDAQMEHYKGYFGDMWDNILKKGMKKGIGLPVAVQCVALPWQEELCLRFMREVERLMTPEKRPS
Chain of ABHD6 (Q8R2Y0 whole entry): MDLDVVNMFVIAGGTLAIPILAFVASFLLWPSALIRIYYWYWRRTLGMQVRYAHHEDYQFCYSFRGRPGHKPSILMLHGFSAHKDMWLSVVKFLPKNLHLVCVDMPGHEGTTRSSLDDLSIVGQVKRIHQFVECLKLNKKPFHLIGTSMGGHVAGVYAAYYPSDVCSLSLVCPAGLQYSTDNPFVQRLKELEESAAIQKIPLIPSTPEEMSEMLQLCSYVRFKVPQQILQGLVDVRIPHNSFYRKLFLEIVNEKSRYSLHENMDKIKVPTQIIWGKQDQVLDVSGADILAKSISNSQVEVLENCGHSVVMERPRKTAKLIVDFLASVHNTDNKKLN

| Structure (SMILES) | ABHD6 % Inh 5 mg/kg (mouse) (ABHD6) | FAAH % Inh 5 mg/kg (mouse) (FAAH) | MAGL % Inh 5 mg/kg (mouse) (MAGL) |
| --- | --- | --- | --- |
| O=C(O)C1CCN(c2cc(Cl)ccc2CN2CCCC23CCN(C(=O)OC(C(F)(F)F)C(F)(F)F)CC3)CC1 [Example 120, 1-(5-Chloro-2-((8-(((1,1,1,3,3,3-hexafluoropropan-2-yl)oxy)carbonyl)-1,8-diazaspiro[4.5]decan-1-yl)methyl)phenyl)piperidine-4-carboxylic acid] | # (# is < 25%) | # (# is < 25%) | ### (### is ≥ 75%) |
| CC1(C(=O)O)CCCN(c2cc(CN3CCCC34CCN(C(=O)OC(C(F)(F)F)C(F)(F)F)CC4)cc(C(F)(F)F)c2)C1 (stereo not drawn) [Example 221] | # (# is < 25%) | # (# is < 25%) | ### (### is ≥ 75%) |
| O=C(OC(C(F)(F)F)C(F)(F)F)N1CCC2(CCCN2Cc2cccc(Cl)c2)CC1 [Example 61, 1,1,1,3,3,3-Hexafluoropropan-2-yl 1-(3-chlorobenzyl)-1,8-diazaspiro[4.5]decane-8-carboxylate] | # (# is < 25%) | ### (### is ≥ 75%) | ### (### is ≥ 75%) |
| O=C(OC(C(F)(F)F)C(F)(F)F)N1CCC2(CCCN2Cc2cccc(N3CCOCC3)c2Cl)CC1 [Example 79, 1,1,1,3,3,3-Hexafluoropropan-2-yl 1-(2-chloro-3-morpholinobenzyl)-1,8-diazaspiro[4.5]decane-8-carboxylate] | # (# is < 25%) | # (# is < 25%) | ### (### is ≥ 75%) |
| O=C(OC(C(F)(F)F)C(F)(F)F)N1CCC2(CCCN2Cc2cc(Oc3nc4ccccc4s3)cc(C(F)(F)F)c2)CC1 [Example 172, 1,1,1,3,3,3-Hexafluoropropan-2-yl 1-(3-(benzo[d]thiazol-2-yloxy)-5-(trifluoromethyl)benzyl)-1,8-diazaspiro[4.5]decane-8-carboxylate] | # (# is < 25%) | # (# is < 25%) | # (# is < 25%) |
| O=C(OC(C(F)(F)F)C(F)(F)F)N1CCC2(CCCN2Cc2ccc(Cl)c(OCCF)c2)CC1 [Example 28, 1,1,1,3,3,3-Hexafluoropropan-2-yl 1-(4-chloro-3-(2-fluoroethoxy)benzyl)-1,8-diazaspiro[4.5]decane-8-carboxylate] | # (# is < 25%) | # (# is < 25%) | ### (### is ≥ 75%) |
| Cc1cc(CN2CCCC23CCN(C(=O)OC(C(F)(F)F)C(F)(F)F)CC3)ccc1C(F)(F)F [Example 177, 1,1,1,3,3,3-Hexafluoropropan-2-yl 1-(3-methyl-4-(trifluoromethyl)benzyl)-1,8-diazaspiro[4.5]decane-8-carboxylate] | # (# is < 25%) | # (# is < 25%) | ### (### is ≥ 75%) |
| O=C(O)C1CCN(c2cc(OC(F)(F)F)ccc2CN2CCCC23CCN(C(=O)OC(C(F)(F)F)C(F)(F)F)CC3)CC1 [Example 248] | # (# is < 25%) | # (# is < 25%) | ### (### is ≥ 75%) |
| Cc1c(CN2CCCC23CCN(C(=O)OC(C(F)(F)F)C(F)(F)F)CC3)cccc1N1CC2CCC(C1)O2 [Example 86, 1,1,1,3,3,3-Hexafluoropropan-2-yl 1-(3-(8-oxa-3-azabicyclo[3.2.1]octan-3-yl)-2-methylbenzyl)-1,8-diazaspiro[4.5]decane-8-carboxylate] | # (# is < 25%) | # (# is < 25%) | ### (### is ≥ 75%) |
| CC1(C)CC2(CCN(C(=O)OC(C(F)(F)F)C(F)(F)F)CC2)CN1Cc1ccc(C(F)(F)F)cc1N1CCC2(CCOCC2)C1 [Example 52, 1,1,1,3,3,3-Hexafluoropropan-2-yl 2-(2-(8-oxa-2-azaspiro[4.5]decan-2-yl)-4-(trifluoromethyl)benzyl)-3,3-dimethyl-2,8-diazaspiro[4.5]decane-8-carboxylate] | # (# is < 25%) | # (# is < 25%) | # (# is < 25%) |
| O=C(OC(C(F)(F)F)C(F)(F)F)N1CCC2(CCCN2Cc2ccc(C(F)(F)F)cc2N2CCC(F)CC2)CC1 [Example 91, 1,1,1,3,3,3-Hexafluoropropan-2-yl 1-(2-(4-fluoropiperidin-1-yl)-4-(trifluoromethyl)benzyl)-1,8-diazaspiro[4.5]decane-8-carboxylate] | # (# is < 25%) | # (# is < 25%) | ### (### is ≥ 75%) |
| O=C(OC(C(F)(F)F)C(F)(F)F)N1CCC2(CCCN2Cc2ccc(Cl)c(C(F)(F)F)c2)CC1 [Example 184, 1,1,1,3,3,3-Hexafluoropropan-2-yl 1-(4-chloro-3-(trifluoromethyl)benzyl)-1,8-diazaspiro[4.5]decane-8-carboxylate] | # (# is < 25%) | # (# is < 25%) | ### (### is ≥ 75%) |
| CC(=O)NC1CCN(c2cc(C(F)(F)F)ccc2CN2CCCC23CCN(C(=O)OC(C(F)(F)F)C(F)(F)F)CC3)CC1 [Example 93, 1,1,1,3,3,3-Hexafluoropropan-2-yl 1-(2-(4-acetamidopiperidin-1-yl)-4-(trifluoromethyl)benzyl)-1,8-diazaspiro[4.5]decane-8-carboxylate] | # (# is < 25%) | # (# is < 25%) | ### (### is ≥ 75%) |
| O=C(OC(C(F)(F)F)C(F)(F)F)N1CCC2(CCCN2Cc2ccc(Cl)cc2N2CCOCC2)CC1 [Example 77, 1,1,1,3,3,3-Hexafluoropropan-2-yl 1-(4-chloro-2-morpholinobenzyl)-1,8-diazaspiro[4.5]decane-8-carboxylate] | # (# is < 25%) | # (# is < 25%) | ### (### is ≥ 75%) |
| O=C(OC(C(F)(F)F)C(F)(F)F)N1CCC2(CCCN2Cc2cccc(N3CC4CCC(C3)O4)c2Cl)CC1 [Example 82, 1,1,1,3,3,3-Hexafluoropropan-2-yl 1-(3-(8-oxa-3-azabicyclo[3.2.1]octan-3-yl)-2-chlorobenzyl)-1,8-diazaspiro[4.5]decane-8-carboxylate] | # (# is < 25%) | # (# is < 25%) | ### (### is ≥ 75%) |
| O=C(OC(C(F)(F)F)C(F)(F)F)N1CCC2(CCCN2Cc2cc(N3CCC3)cc(C(F)(F)F)c2)CC1 [Example 47, 1,1,1,3,3,3-Hexafluoropropan-2-yl 1-(3-(azetidin-1-yl)-5-(trifluoromethyl)benzyl)-1,8-diazaspiro[4.5]decane-8-carboxylate] | # (# is < 25%) | # (# is < 25%) | ### (### is ≥ 75%) |
| O=C(O)C1CCN(c2cc(C(F)(F)F)ccc2CN2CCC3(CCN(C(=O)OC(C(F)(F)F)C(F)(F)F)CC3)C2)CC1 [Example 119, 1-(2-((8-(((1,1,1,3,3,3-Hexafluoropropan-2-yl)oxy)carbonyl)-2,8-diazaspiro[4.5]decan-2-yl)methyl)-5-(trifluoromethyl)phenyl)piperidine-4-carboxylic acid] | ### (### is ≥ 75%) | # (# is < 25%) | ### (### is ≥ 75%) |
| COc1cc(Cl)ccc1CN1CCCC12CCN(C(=O)OC(C(F)(F)F)C(F)(F)F)CC2 [Example 9, 1,1,1,3,3,3-Hexafluoropropan-2-yl 1-(4-chloro-2-methoxybenzyl)-1,8-diazaspiro[4.5]decane-8-carboxylate] | # (# is < 25%) | # (# is < 25%) | ### (### is ≥ 75%) |
| O=C(O)[C@@H]1CCCCN1c1cc(CN2CCCC23CCN(C(=O)OC(C(F)(F)F)C(F)(F)F)CC3)cc(C(F)(F)F)c1 [Example 196, (S)-1-(3-((8-(((1,1,1,3,3,3-Hexafluoropropan-2-yl)oxy)carbonyl)-1,8-diazaspiro[4.5]decan-1-yl)methyl)-5-(trifluoromethyl)phenyl)piperidine-2-carboxylic acid] | # (# is < 25%) | # (# is < 25%) | ### (### is ≥ 75%) |
| O=C(OC(C(F)(F)F)C(F)(F)F)N1CCC2(CCCN2Cc2ccc(C(F)(F)F)cc2N2CC3COCC3C2)CC1 (stereo not drawn) [Example 97, 1,1,1,3,3,3-Hexafluoropropan-2-yl 1-(2-(tetrahydro-1H-furo[3,4-c]pyrrol-5(3H)-yl)-4-(trifluoromethyl)benzyl)-1,8-diazaspiro[4.5]decane-8-carboxylate] | # (# is < 25%) | # (# is < 25%) | ### (### is ≥ 75%) |
| O=C(OC(C(F)(F)F)C(F)(F)F)N1CCC2(CCCN2Cc2ccc(Cl)cc2N2CCC(F)CC2)CC1 [Example 102, 1,1,1,3,3,3-Hexafluoropropan-2-yl 1-(4-chloro-2-(4-fluoropiperidin-1-yl)benzyl)-1,8-diazaspiro[4.5]decane-8-carboxylate] | # (# is < 25%) | # (# is < 25%) | ### (### is ≥ 75%) |
